Data on 20 sequences can be found in US7531629B2, “Tumor associated antigen peptides and use of same as anti-tumor vaccines” (Yeda Research and Development Co. Ltd., priority 1998, dated 2009).

Assay [1] relates to RMA-S-HhD cells. Nature of the assay: CTL from peptide-immunized HhD mice against loaded RMA-S-HhD target cells. In kind it is in vivo. To be noted: for ability to evoke specific CTL responses (lysis of peptide-loaded target cells): additional Uroplakin Ib, II, III peptides, three weekly immunizations, FIGS. 23a-e; for lysis of RMA-S-HhD target cells loaded with MUC-1 peptide: immunization with a pool of the MUC-1-derived synthetic peptides; for lysis of RMA-S-HhD targets loaded with homologous BA-46 peptide: CTL from HhD mice immunized with BA-46 peptides; for lymphocyte response specifically lysing CRIPTO-1 peptide-loaded target cells: HhD mice immunized with CRIPTO-1 peptide pools, FIGS. 24a-c. The protocol:
(§1) Vaccination: Mice were immunized intraperitonealy three times at 7-day intervals, with 2×10^6 irradiated (5,000 rad) tumor cells, or with peptide-loaded RMA-S-HhD-B7.1 transfectants. Peptide loading of RMA-S-HhD-B7.1 cells was performed as follows: After washing the cells 3 times in PBS, the surface expression of HhD monochins was stabilized by a 4 hours culture at 26° C. Synthetic peptides, or peptide extracts were added to 10×10^6 cells in 1 ml of opti-MEM (Gibco) medium to a concentration of 100 μM or 1 mM, respectively. The cells were incubated at 26° C. and for additional 3 hours at 37° C. Peptide loaded RMA-S-HhDσ-σB7.1 cells were irradiated (5000 rad), washed, resuspended in PBS and injected into mice. In mixed synthetic vaccines, RMA-S-HhD-B7.1 cells were loaded separately with each peptide and pooled before vaccination.
(§2) In vitro cytotoxicity assays: Mice were immunized intraperitonealy three times at 7-day intervals, with 2×10^6 irradiated (5,000 rad) tumor cells, or with peptide-loaded RMA-S-HhD-B7.1 transfectants. Spleens were removed on day 10 after the last immunization and splenocytes were restimulated in vitro with either irradiated tumor cells (for mice immunized with tumor cells) or with lymphocytes pulsed with 100 μM synthetic peptides or 1 mM patients-derived extract in opti-MEM (Gibco) medium. Restimulated lymphocytes were maintained in RPMI 1640 medium containing 10% FCS, 1 mM glutamine, combined antibiotics, 1 mM sodium pyruvate, 10 mM HEPES, pH 7.4, 5×10^−5 M β-mercaptoethanol, and 1% nonessential amino acids (RPMI-HEPES medium) for 5 days. Viable lymphocytes (effector cells), were separated by lymphocyte-M (Cedarlane, Ontario, Canada) centrifugation, resuspended in RPMI-HEPES medium, and admixed at different ratios with 5×10^3 peptide loaded RMA-S-HhD cells, previously loaded with different peptides (see vaccination). CTL assays were performed in U-shaped microtiter wells, at 37° C., 5% CO2 for 5 hours. Cultures were terminated by centrifugation at 1,000 rpm for 10 minutes at 4° C. A total of 100 μl of the supernatants was mixed with scintillation fluids and counted in a beta counter. […] Spontaneous release was determined by incubation of 100 μl-labeled target cells with 100 μl of medium. Maximal release was determined by solubilization of target cells in 100 μl 0.1 M NaOH.
CTL induced in HhD mice recognize the same UP II peptides as human PBL: The immunogenicity of Uroplakin homologue peptides was also evaluated in a mouse model, in which the murine MHC class I genes are not expressed (D^b−/−, β2-microglobulin −/−, double knockout) and which is transgenic for a HLA-A2 and human β2-microglobulin monochain (HhD mice). The advantage of a HLA-A2 transgenic mouse model is that CTL epitopes can be detected more easily and reproducibly, without lengthy and repeated in vitro stimulations. The murine MHC knockout mice used herein has the additional advantage that their CTL repertoire is only HLA-A2 restricted and the CTL response against human tumor extract or human cell lines is not masked by a potential xenogeneic response. HhD mice were immunized with the 7 Uroplakin II homologue peptides or with the same TCC peptide extract used for stimulation of patient's PBL. Lymphocytes were obtained from the spleens of these mice and restimulated in vitro once with the corresponding peptides. […]

Assay [2] can be described thus: MHC stabilization assay: peptide binding to HhD on RMA-S-HhD cells, indirect FACS. Details: species or system human. The conditions noted are these: peptide loaded RMA-S-HhD cells. The protocol: Measurement of peptide binding by stabilization of cell surface MHC: Peptide binding to HhD was measured by stabilization of HhD on RMA-S transfectants, using an indirect FACS assay as follows: 5×10^5 peptide loaded TAP-2 deficient RMA-S-HhD cells (see vaccination), were incubated with anti HLA monoclonal antibodies for 30 minutes at 4° C. After washing the cells with PBS-0.5%, BSA+0.1%, sodium azide, the second antibody, goat anti mouse-FITC (Jackson Lab.), was applied for 30 minutes at 4° C. Following washing, the amount of bound antibodies was detected by FACSscan […].
Mouse monoclonal antibodies. B-9-12, w6/32 (anti HLA A, B, C) and B.B7.2 (anti HLA-A2.1) were used for analyses.
Cytotoxic activity of human peripheral blood lymphocytes (PBL) against target cells pulsed with Uroplakin II peptide homologues: The human UP II amino acid sequence was screened for potential HLA-A2 binding, 9 amino acids peptides by a HLA binding motif program. We chose that particular HLA allele because it is present in 45% of the population. Seven 9-mer peptides, which were predicted to bind with high affinity to HLA-A2 were selected and synthesized (Table 1). The binding of these peptides to HLA-A2 was tested by an MHC stabilization assay utilizing TAP negative cells, which can present exogeneously bound peptides. The RMA-S cells (30) transfected by the HhD construct were loaded with various concentrations of UP II peptides and then reacted with anti-HLA antibody. High affinity binding was shown for all 7 peptides by FACS analyses (FIG. 1).

The test system of assay [3] is RMA-S-HhD cells. Nature of the assay: CTL from HhD mice immunized with tumor extracted peptides or DU145-HhD cells against loaded RMA-S-HhD target cells. In kind it is cell-based. To be noted: for recognition and lysis of peptide loaded targets by anti-tumor extract CTL: CTL against breast tumor peptide extracts, E:T 50:1. The protocol: as §1
as §2, with “Cultures were terminated by centrifugation at 1,000 rpm for 10 minutes at 4° C.” left out
CTL induced in HhD mice recognize the same UP II peptides as human PBL: The immunogenicity of Uroplakin homologue peptides was also evaluated in a mouse model, in which the murine MHC class I genes are not expressed (D^b−/−, β2-microglobulin −/−, double knockout) and which is transgenic for a HLA-A2 and human β2-microglobulin monochain (HhD mice). The advantage of a HLA-A2 transgenic mouse model is that CTL epitopes can be detected more easily and reproducibly, without lengthy and repeated in vitro stimulations. […]

Assay [4] relates to MDA-MB-157-HhD cells. Description: Lysis of MDA-MB-157-HhD breast carcinoma cells by CTL from immunized HhD mice. In kind it is in vitro. To be noted: CTL from HhD mice immunized with the named substance.
The test system of assay [5] is prostate cancer. The conditions noted are these: DC based vaccine, 51 prostate cancer patients, HLA-A2; cited from earlier work.
Assay [6] concerns T2 cells. Description: CTL assay with patients' PBL resensitized with pooled TCC extracted peptides. To be noted: CTL from TCC patients' PBL. In kind it is cell-based, human.

As to “AILCWTFWV (listed as Homo sapiens) [Uroplakin Ib/B1]”, the “ability to evoke specific CTL responses (lysis of peptide-loaded target cells)” value (“ability to evoke specific CTL responses” below) in assay [1] is recorded as “could elicit lymphocytes which specifically lysed target cells”.

“ALASTAPPV (listed as Homo sapiens) [MUC-1/E6]”: the “peptide binding to HhD, stabilization of cell surface HhD (FACS)” value (“peptide binding to HhD, stabilization” for short) in assay [2] is “higher binding affinity”. For the same sequence, the “lysis of RMA-S-HhD target cells loaded with MUC-1 peptide” value (“lysis of RMA-S-HhD target cells loaded” below) in assay [1] was 15%. In assay [3], the “recognition and lysis of peptide loaded targets by anti-tumor extract CTL” value (“recognition and lysis” below) was “recognized and lysed”. Further, the “lysis of breast carcinoma line HhD transfectant (MDA-MB-157-HhD) relative to parental cells” value in assay [4] is recorded as “Preferential lysis”.

Turning to “ALFDIESKV (listed as Homo sapiens) [PSMA5]”, in assay [5], the “patients responding by decreased levels of serum PSA” value is 7 patients.

Take “FILMFIVYA (listed as Homo sapiens) [Uroplakin Ib/B2]”: in assay [1], the “ability to evoke specific CTL responses” value is on record as “could elicit lymphocytes which specifically lysed target cells”.

For the sequence “FLLVGFAGA (listed as Homo sapiens) [Uroplakin III/3.3]”, in assay [1], the “ability to evoke specific CTL responses” value is “could elicit lymphocytes which specifically lysed target cells”.

As to “FLSFHISNL (listed as Homo sapiens) [MUC-1/F6]”, in assay [1], the “lysis of RMA-S-HhD target cells loaded” value is reported as 15%.

“GLQHWVPEL (listed as Homo sapiens) [BA-46-7]”: in assay [1], the “lysis of RMA-S-HhD targets loaded with homologous BA-46 peptide” value (“lysis … with homologous BA-46 peptide” for short) was 60%.

As for “ILCWTFWVL (listed as Homo sapiens) [Uroplakin Ib/B5]”, in assay [1], the “ability to evoke specific CTL responses” value was “could elicit lymphocytes which specifically lysed target cells”.

For the sequence “ILNAYLVRV (listed as Homo sapiens) [Uroplakin III/3.2]”, the “ability to evoke specific CTL responses” value in assay [1] is recorded as “could elicit lymphocytes which specifically lysed target cells”.

For “KILLAYFIL (listed as Homo sapiens) [Uroplakin Ib/B6]”, the “ability to evoke specific CTL responses” value in assay [1] is “could elicit lymphocytes which specifically lysed target cells”.

“KMARFSYSV (listed as Homo sapiens) [Cripto-1/C1]”: the “lymphocyte response specifically lysing CRIPTO-1 peptide-loaded target cells” value in assay [1] is reported as “can elicit lymphocyte response which specifically lyses CRIPTO-1 peptide-loaded target cells”.

Regarding “KMVRFSYSV (listed as Homo sapiens) [Cripto-1/C10]”, in assay [1], the “lymphocyte response specifically lysing CRIPTO-1 peptide-loaded target cells” value is “can elicit lymphocyte response which specifically lyses CRIPTO-1 peptide-loaded target cells”.

As to “LLLTVLTVV (listed as Homo sapiens) [MUC-1/D6]”, the “peptide binding to HhD, stabilization” value in assay [2] is “higher binding affinity”. Besides, the “lysis of RMA-S-HhD target cells loaded” value in assay [1] is on record as 38%. In addition, the “recognition and lysis” value in assay [3] was “recognized and lysed”. In assay [4], the “lysis of breast carcinoma line HhD transfectant (MDA-MB-157-HhD) relative to parental cells” value was “Preferential lysis”.

As for “MLAGICLSI (listed as Homo sapiens) [Cripto-1/C12]”, in assay [1], the “lymphocyte response specifically lysing CRIPTO-1 peptide-loaded target cells” value is given as “can elicit lymphocyte response which specifically lyses CRIPTO-1 peptide-loaded target cells”.

Turning to “MLVGICLSI (listed as Homo sapiens) [Cripto-1/C8]”, the “lymphocyte response specifically lysing CRIPTO-1 peptide-loaded target cells” value in assay [1] was “can elicit lymphocyte response which specifically lyses CRIPTO-1 peptide-loaded target cells”.

For the sequence “NLFETPVEA (listed as Homo sapiens) [BA-46-6]”, the “lysis … with homologous BA-46 peptide” value in assay [1] is on record as 40%.

Take “NLTISDVSV (listed as Homo sapiens) [MUC-1/A7]”: in assay [2], the “peptide binding to HhD, stabilization” value was “higher binding affinity”. The “lysis of RMA-S-HhD target cells loaded” value in assay [1] turned out to be 30%. The “recognition and lysis” value in assay [3] is “recognized and lysed”. For the same sequence, the “lysis of breast carcinoma line HhD transfectant (MDA-MB-157-HhD) relative to parental cells” value in assay [4] is “Preferential lysis”.

On to “RLLAALCGA (listed as Homo sapiens) [BA-46-9]”, for which the “lysis … with homologous BA-46 peptide” value in assay [1] is listed as 40%.

Regarding “VLLSVAMFL (listed as Homo sapiens) [Uroplakin II/8]”, the “ability to evoke specific CTL responses” value in assay [1] is “could elicit lymphocytes which specifically lysed target cells”.

On to “YMDGTMSQV [Tyrosinase, reference compound]”, for which the “lysis of T2 cells loaded with nonspecific peptides” value in assay [6] is “no lysis”. Further, in assay [1] (CTL from HhD mice immunized with human Uroplakin II peptides 1-7, substance loaded on targets), the “lysis of loaded RMA-S-HhD cells, lytic units (LU30)” value is listed as “no lysis”. Moreover, in assay [1], the “ability to evoke specific CTL responses” value is on record as “no significant lysis”. Also, the “lysis of targets loaded with nonspecific peptides” value in assay [1] (overall, all immunized groups of Example 2) is recorded as “no lysis”. Also, the “specific lysis of loaded RMA-S-HhD cells” value in assay [3] (CTL from HhD mice immunized with breast tumor extract peptide, E:T 100:1) was “No lysis”.
